# Measurements taken from patent publication US8546579B2, “Bicycloheteroaryl compounds as P2X7 modulators and uses thereof” (Evotec (US) Inc., priority 2006, dated 2013).
# Molecular target: T1, P2X7 receptor (Homo sapiens, UniProt Q99572)
# T1 construct: host or cells: THP-1 cells differentiated with LPS and IFN-γ
# T1 sequence (Q99572 1-595): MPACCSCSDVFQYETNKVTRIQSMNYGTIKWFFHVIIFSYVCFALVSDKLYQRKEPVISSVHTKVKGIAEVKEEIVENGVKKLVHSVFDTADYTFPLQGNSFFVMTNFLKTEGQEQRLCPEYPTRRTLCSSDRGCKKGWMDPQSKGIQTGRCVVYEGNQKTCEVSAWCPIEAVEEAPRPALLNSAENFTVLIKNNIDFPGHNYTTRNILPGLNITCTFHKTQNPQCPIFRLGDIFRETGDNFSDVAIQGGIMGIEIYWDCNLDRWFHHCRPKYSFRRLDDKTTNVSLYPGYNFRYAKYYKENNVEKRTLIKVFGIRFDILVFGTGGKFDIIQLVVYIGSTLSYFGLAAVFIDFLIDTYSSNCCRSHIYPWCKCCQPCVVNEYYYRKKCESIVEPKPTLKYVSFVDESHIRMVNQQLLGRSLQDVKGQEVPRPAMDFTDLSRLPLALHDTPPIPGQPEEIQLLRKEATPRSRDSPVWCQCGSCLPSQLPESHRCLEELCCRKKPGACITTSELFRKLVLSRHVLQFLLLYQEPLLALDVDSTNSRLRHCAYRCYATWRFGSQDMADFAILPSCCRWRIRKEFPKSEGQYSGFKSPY
# Assay: IL-1β release assay in differentiated THP-1 cells stimulated with BzATP (Example 9)
# Type: cell-based
# Set-up: inhibition: dose or concentration left out as unconfirmed
# Settings: 0.1 μM compound; differentiated THP-1 cells, BzATP 250 uM; "*" class symbols; read-out: IL-1β % Inhib. ("*" symbols: at 0.1 μM)
# Description: THP-1 cells (ATCC Cat # 285-IF-100) are plated in 96 well plates at a concentration of 200,000 cells per well and allowed to differentiate in RPMI-1640 media (ATCC Cat # 30-2001) containing 10% FBS, 100 IU/mL penicillin, 100 ug/mL streptomycin, 100 ng/mL LPS and 100 ng/mL IFN-γ for 16 hours. Following differentiation, the cells are treated for an additional 2 hours in RPMI-1640 media containing 100 IU/mL penicillin, 100 ug/mL streptomycin and fresh LPS at 100 ng/mL. The cells are then pretreated for 30 minutes with the compound of interest at the appropriate concentration in RPMI media containing 100 IU/mL penicillin, 100 ug/mL streptomycin. Following the pretreatment 2′,3′-O-(4-benzoylbenzoyl)-adenosine 5′-triphosphate (Sigma Aldrich Cat # B6396) is added to a final concentration of 250 uM and the cells are incubated for an additional 45 minutes. 30 uL of cell supernatant is then collected and IL-1β levels determined via ELISA (R&D systems Cat. # HSLB50) according to manufacturer's recommendations using the Tecan Safire plate reader. Background adjusted IL-1β levels of drug treated and non-treated cells are used to calculate the percent inhibition.
# The compounds set forth in Table 1 were tested for activity in a cellular model as described herein. Specifically, cells were pretreated with differing amounts of the compound under test and released IL-1β determined as in Example 9, above. Measurements were made and IC50 values, presented in Table 2, below, were determined by fitting the data to a four parameter logistic equation using GraphPad Prism software (GraphPad Software, Inc). The equation may be expressed by the following formula: Y=Bottom+(Top−Bottom)/(1+10^((Log EC50−X)*HillSlope)) Where X is the logarithm of concentration, Y is the response and Y starts at Bottom and goes to Top with a sigmoid shape.
row,inhibition at 0.1 µM,Structure (SMILES)
1,0 to 25%,COc1ccc(CC(=O)Nc2cccc3c(=O)n(Cc4ccc(OC(F)(F)F)cc4)ccc23)c(OC)c1 [Compound 1601]
2,0 to 25%,Cc1cccc(C(=O)Nc2cccc3c(=O)n(Cc4ccc(OC(F)(F)F)cc4)ccc23)c1Cl [Compound 1607]
3,0 to 25%,Cc1cc(C(=O)Nc2cccc3c(=O)n(Cc4ccc(OC(F)(F)F)cc4)ccc23)ccc1F [Compound 1602]

# Same assay, conditions: 0.3 μM compound; differentiated THP-1 cells, BzATP 250 uM; "+" class symbols; read-out: IL-1β % Inhib. @ 0.3 μM
row,inhibition at 0.3 µM,Structure (SMILES)
1,0 to 25%,CC(C(N)=O)n1ccc2c(NC(=O)C3COc4cc(C(C)(C)C)ccc4O3)cccc2c1=O (centres unmarked) [Compound 1622]

# Same assay, conditions: 0.3 μM compound; differentiated THP-1 cells, BzATP 250 uM; '+' class symbols; read-out: IL-1β % Inhib. @ 0.3 μM
row,Structure (SMILES),inhibition at 0.3 µM
1,CN(C)CCn1ccc2c(NC(=O)CCCc3ccccc3)cccc2c1=O [Compound 1161],0 to 25%
2,O=C(CCc1ccc2c(c1)OCO2)Nc1cccc2c(=O)n(Cc3cccnc3)ccc12 [Compound 1080],0 to 25%
3,O=C(Nc1cccc2c(=O)n(Cc3cccnc3)ccc12)c1ccc(-c2ccccc2)o1 [Compound 1074],0 to 25%
4,"Cn1ccc2c(NC(=O)CC3CCCCCC3)cccc2c1=O [Compound 1024, 2-Cycloheptyl-N-(2-methyl-1-oxo-1,2-dihydro-isoquinolin-5-yl)-acetamide]",≥ 76%
5,O=C(Nc1cccc2c(=O)n(CC3CCOCC3)ccc12)C1C[C@@H]2CC[C@H]1C2 (some centres unmarked) [Compound 1122],0 to 25%

# Other lines, results leading:
row,inhibition at 0.3 µM,Structure (SMILES)
1,0 to 25%,COc1ccc(CCC(=O)Nc2cccc3c(=O)n(CCN(C)C)ccc23)cc1 [Compound 1150]
2,0 to 25%,CCOc1cccc(C(=O)Nc2cccc3c(=O)n(CCN4CCOCC4)ccc23)c1 [Compound 1044]
3,0 to 25%,COCCn1ccc2c(NC(=O)Cc3c(C)cc(C)cc3C)cccc2c1=O [Compound 1065]
4,0 to 25%,COCCn1ccc2c(NC(=O)c3ccc(Cl)c(C)c3)cccc2c1=O [Compound 1071]
5,0 to 25%,COCCn1ccc2c(NC(=O)CCc3ccc4c(c3)OCO4)cccc2c1=O [Compound 1070]
6,0 to 25%,O=C(Nc1cccc2c(=O)n(CC3CCOCC3)ccc12)c1cc2cc(Cl)ccc2o1 [Compound 1131]
7,0 to 25%,CC(C)(C)Cn1ccc2c(NC(=O)CCc3ccccc3Cl)cccc2c1=O [Compound 1054]

# Same assay, conditions: 0.3 μM compound; differentiated THP-1 cells, BzATP 250 uM; symbols + to ++++; read-out: IL-1β % Inhib. @ 0.3 μM
row,Structure (SMILES),inhibition at 0.3 µM
1,COCCn1ccc2c(NC(=O)c3cccc4ccccc34)cccc2c1=O [Compound 1312],0 to 25%
2,COc1ccc(CC(=O)Nc2cccc3c(=O)n(CC(C)(C)C)ccc23)cc1 [Compound 1260],0 to 25%
3,COCCn1ccc2c(NC(=O)Cc3ccc(C)cc3)cccc2c1=O [Compound 1318],0 to 25%
4,O=C(Nc1cccc2c(=O)n(Cc3cccnc3)ccc12)[C@@]12C[C@@H]3C[C@@H](C[C@@H]1C3)C2 [Compound 1362],0 to 25%
5,O=C(CCc1cccc(Cl)c1)Nc1cccc2c(=O)n(CCN3CCOCC3)ccc12 [Compound 1242],26 to 50%
6,CCOc1ccc(CC(=O)Nc2cccc3c(=O)n(CC(C)(C)C)ccc23)cc1 [Compound 1261],0 to 25%
7,Cn1ccc2c(NC(=O)Cc3ccc4c(c3)OCO4)cccc2c1=O [Compound 1301],0 to 25%
8,Cn1ccc2c(NC(=O)C3C[C@@H]4CC[C@H]3C4)cccc2c1=O (some centres unmarked) [Compound 1306],0 to 25%
9,COCCn1ccc2c(NC(=O)CCc3ccc(C)cc3C)cccc2c1=O [Compound 1341],0 to 25%
10,Cn1ccc2c(NC(=O)[C@@]34C[C@@H]5C[C@@H](C[C@@H]3C5)C4)cccc2c1=O [Compound 1303],0 to 25%
11,CCOc1ccccc1CC(=O)Nc1cccc2c(=O)n(CC(C)(C)C)ccc12 [Compound 1280],0 to 25%
12,O=C(Cc1ccc2c(c1)OCO2)Nc1cccc2c(=O)n(Cc3cccnc3)ccc12 [Compound 1359],26 to 50%
13,CC(C)(C)Cn1ccc2c(NC(=O)Cc3cccc4ccccc34)cccc2c1=O [Compound 1250],0 to 25%
14,Cc1cccc(CCC(=O)Nc2cccc3c(=O)n(CC(C)(C)C)ccc23)c1 [Compound 1284],0 to 25%

# Further lines, results first:
row,inhibition at 0.3 µM,Structure (SMILES)
1,0 to 25%,Cc1ccc(C(=O)Nc2cccc3c(=O)n(CCN4CCOCC4)ccc23)cc1Cl [Compound 1220]
2,0 to 25%,Cc1c(Cl)cccc1C(=O)Nc1cccc2c(=O)n(CC(C)(C)C)ccc12 [Compound 1275]
3,0 to 25%,CC(C)(C)Cn1ccc2c(NC(=O)c3cccc4ccccc34)cccc2c1=O [Compound 1249]
4,0 to 25%,Cn1ccc2c(NC(=O)CC3CC4CC[C@H]3C4)cccc2c1=O (some centres unmarked) [Compound 1302]
5,0 to 25%,Cc1ccc(Cl)cc1C(=O)Nc1cccc2c(=O)n(CCN3CCOCC3)ccc12 [Compound 1236]
6,0 to 25%,CC(=O)OCCn1ccc2c(NC(=O)Cc3ccc4c(c3)OCCO4)cccc2c1=O [Compound 1377]
7,0 to 25%,COCCn1ccc2c(NC(=O)CCc3ccc(OC)cc3)cccc2c1=O [Compound 1311]
8,0 to 25%,O=C(Cc1ccccc1F)Nc1cccc2c(=O)n(CCN3CCOCC3)ccc12 [Compound 1204]
9,0 to 25%,COc1ccccc1CCC(=O)Nc1cccc2c(=O)n(CC(C)(C)C)ccc12 [Compound 1248]
10,0 to 25%,COCCn1ccc2c(NC(=O)Cc3cccc(C)c3)cccc2c1=O [Compound 1315]

# Same assay, conditions: THP-1; read-out: IL-1β % Inhib.
row,Structure (SMILES),inhibition
1,COc1ccc(OC)c(CC(=O)Nc2cccc3c(=O)n(C)ccc23)c1 [Compound 1422],0 to 25%
2,Cc1ccc(Cl)c(C(=O)Nc2cccc3c(=O)n(CC4CCN(C)CC4)ccc23)c1 [Compound 1486],0 to 25%
3,COCCn1ccc2c(NC(=O)c3cc(C)ccc3Cl)cccc2c1=O [Compound 1440],0 to 25%
4,O=C(Nc1cccc2c(=O)n(Cc3ccc(OC(F)(F)F)cc3)ccc12)c1cc(Cl)ccc1Cl [Compound 1561],0 to 25%
5,O=C(Nc1cccc2c(=O)n(CCCN3CCCC3=O)ccc12)c1ccccc1Cl [Compound 1504],51 to 75%
6,CC(C)(C)Cn1ccc2c(NC(=O)c3cc(Cl)ccc3Cl)cccc2c1=O [Compound 1412],0 to 25%
7,Cc1ccc(C(=O)Nc2cccc3c(=O)n(CC4CCN(C)CC4)ccc23)c(C)c1 [Compound 1462],0 to 25%
8,COc1ccc(CC(=O)Nc2cccc3c(=O)n(CCCN4CCCC4=O)ccc23)c(OC)c1 [Compound 1535],0 to 25%

# Other lines, results leading:
row,inhibition,Structure (SMILES)
1,26 to 50%,O=C(Nc1cccc2c(=O)n(CCCN3CCCC3=O)ccc12)c1ccc(Cl)cc1Cl [Compound 1505]
2,26 to 50%,COc1c(C)cc(C(=O)Nc2cccc3c(=O)n(Cc4ccc(OC(F)(F)F)cc4)ccc23)cc1C [Compound 1590]
3,0 to 25%,Cc1ccc(C)c(C(=O)Nc2cccc3c(=O)n(CCCN4CCCC4=O)ccc23)c1 [Compound 1510]
4,0 to 25%,CN1CCC(Cn2ccc3c(NC(=O)c4ccc5c(c4)OCCCO5)cccc3c2=O)CC1 [Compound 1480]
5,26 to 50%,O=C(CCc1ccc(Cl)cc1)Nc1cccc2c(=O)n(CCCN3CCCC3=O)ccc12 [Compound 1537]
6,0 to 25%,Cc1cccc(CCC(=O)Nc2cccc3c(=O)n(CC4CCN(C)CC4)ccc23)c1 [Compound 1488]
7,26 to 50%,COc1cc(OC)cc(C(=O)Nc2cccc3c(=O)n(Cc4ccc(OC(F)(F)F)cc4)ccc23)c1 [Compound 1566]
8,0 to 25%,CC(C(=O)Nc1cccc2c(=O)n(CC3CCN(C)CC3)ccc12)c1ccccc1 (centres unmarked) [Compound 1466]

# Same assay, conditions: THP-1 cells, BzATP-stimulated IL-1β release, four parameter logistic fit
row,IC50,Structure (SMILES)
1,> 1000 nM,CC(C(N)=O)n1ccc2c(NC(=O)C3COc4cc(C(C)(C)C)ccc4O3)cccc2c1=O (centres unmarked) [Compound 1622]
2,31.5 nM,"Cn1ccc2c(NC(=O)CC3CCCCCC3)cccc2c1=O [Compound 1024, 2-Cycloheptyl-N-(2-methyl-1-oxo-1,2-dihydro-isoquinolin-5-yl)-acetamide]"
3,> 1000 nM,CC(=O)OCCn1ccc2c(NC(=O)Cc3ccc4c(c3)OCCO4)cccc2c1=O [Compound 1377]
